Reference: patent US9884842B2, “Combretastatin analogs” (The Board of Trustees of the University of Arkansas, priority 2013, dated 2018)

system: full panel of 60 different cancer cell lines; assay: NCI five dose screen, full panel summary; assay type: cell-based, human; conditions: Homo sapiens; range over the potently inhibited cell lines; read-out: GI50 ranging (potently inhibited cancer cell lines)

Structure (SMILES)	GI50
COc1cc(OC)cc(/C(C#N)=C/c2cnc3ccccc3c2)c1 [PNR-4-85, (Z)-3-(quinolin-3-yl)-2-(3,5-dimethoxyphenyl)acrylonitrile]	53 to 903 nM

same assay, conditions: Homo sapiens; read-out: average GI50 value on all the cancer cell lines

Structure (SMILES)	GI50
COc1cc(OC)cc(/C(C#N)=C/c2cnc3ccccc3c2)c1 [PNR-4-85, (Z)-3-(quinolin-3-yl)-2-(3,5-dimethoxyphenyl)acrylonitrile]	2210 nM

same assay, conditions: share of the cancer cell lines potently inhibited

Structure (SMILES)	potent growth inhibition on % of the cancer cell lines
COc1cc(OC)cc(/C(C#N)=C/c2cnc3ccccc3c2)c1 [PNR-4-85, (Z)-3-(quinolin-3-yl)-2-(3,5-dimethoxyphenyl)acrylonitrile]	81%

system: U251; assay: NCI growth inhibition and cytotoxicity screen, CNS Cancer panel; conditions: Homo sapiens, U-251

Structure (SMILES)	GI50
COc1cc(OC)cc(/C(C#N)=C/c2cnc3ccccc3c2)c1 [PNR-4-85, (Z)-3-(quinolin-3-yl)-2-(3,5-dimethoxyphenyl)acrylonitrile]	374 nM

same assay, conditions: Homo sapiens, U-251, read-out: LC50

Structure (SMILES)	CC50
COc1cc(OC)cc(/C(C#N)=C/c2cnc3ccccc3c2)c1 [PNR-4-85, (Z)-3-(quinolin-3-yl)-2-(3,5-dimethoxyphenyl)acrylonitrile]	> 100 µM

system: HCT-116; assay: NCI growth inhibition and cytotoxicity screen, Colon Cancer panel; conditions: Homo sapiens, HCT-116

Structure (SMILES)	GI50
COc1cc(OC)cc(/C(C#N)=C/c2cnc3ccccc3c2)c1 [PNR-4-85, (Z)-3-(quinolin-3-yl)-2-(3,5-dimethoxyphenyl)acrylonitrile]	420 nM

same assay, conditions: Homo sapiens, HCT-116, read-out: LC50

Structure (SMILES)	CC50
COc1cc(OC)cc(/C(C#N)=C/c2cnc3ccccc3c2)c1 [PNR-4-85, (Z)-3-(quinolin-3-yl)-2-(3,5-dimethoxyphenyl)acrylonitrile]	> 100 µM

system: PC-3; assay: NCI growth inhibition and cytotoxicity screen, Prostate Cancer panel; conditions: Homo sapiens, PC-3

Structure (SMILES)	GI50
COc1cc(OC)cc(/C(C#N)=C/c2cnc3ccccc3c2)c1 [PNR-4-85, (Z)-3-(quinolin-3-yl)-2-(3,5-dimethoxyphenyl)acrylonitrile]	506 nM

same assay, conditions: Homo sapiens, PC-3, read-out: LC50

Structure (SMILES)	CC50
COc1cc(OC)cc(/C(C#N)=C/c2cnc3ccccc3c2)c1 [PNR-4-85, (Z)-3-(quinolin-3-yl)-2-(3,5-dimethoxyphenyl)acrylonitrile]	> 100 µM

system: UACC-62; assay: NCI growth inhibition and cytotoxicity screen, Melanoma panel; conditions: Homo sapiens, UACC-62

Structure (SMILES)	GI50
COc1cc(OC)cc(/C(C#N)=C/c2cnc3ccccc3c2)c1 [PNR-4-85, (Z)-3-(quinolin-3-yl)-2-(3,5-dimethoxyphenyl)acrylonitrile]	357 nM

same assay, conditions: Homo sapiens, UACC-62, read-out: LC50

Structure (SMILES)	CC50
COc1cc(OC)cc(/C(C#N)=C/c2cnc3ccccc3c2)c1 [PNR-4-85, (Z)-3-(quinolin-3-yl)-2-(3,5-dimethoxyphenyl)acrylonitrile]	> 100 µM

system: LOX-IMVI; assay: as above; conditions: Homo sapiens

Structure (SMILES)	GI50
COc1cc(OC)cc(/C(C#N)=C/c2cnc3ccccc3c2)c1 [PNR-4-85, (Z)-3-(quinolin-3-yl)-2-(3,5-dimethoxyphenyl)acrylonitrile]	672 nM

same assay, conditions: Homo sapiens, read-out: LC50

Structure (SMILES)	CC50
COc1cc(OC)cc(/C(C#N)=C/c2cnc3ccccc3c2)c1 [PNR-4-85, (Z)-3-(quinolin-3-yl)-2-(3,5-dimethoxyphenyl)acrylonitrile]	> 100 µM

system: SNB-75; assay: NCI growth inhibition and cytotoxicity screen, CNS Cancer panel; conditions: Homo sapiens, SNB-75

Structure (SMILES)	GI50
COc1cc(OC)cc(/C(C#N)=C/c2cnc3ccccc3c2)c1 [PNR-4-85, (Z)-3-(quinolin-3-yl)-2-(3,5-dimethoxyphenyl)acrylonitrile]	224 nM

same assay, conditions: Homo sapiens, SNB-75, read-out: LC50

Structure (SMILES)	CC50
COc1cc(OC)cc(/C(C#N)=C/c2cnc3ccccc3c2)c1 [PNR-4-85, (Z)-3-(quinolin-3-yl)-2-(3,5-dimethoxyphenyl)acrylonitrile]	> 100 µM

system: HCT-15; assay: NCI growth inhibition and cytotoxicity screen, Colon Cancer panel; conditions: Homo sapiens, HCT-15

Structure (SMILES)	GI50
COc1cc(OC)cc(/C(C#N)=C/c2cnc3ccccc3c2)c1 [PNR-4-85, (Z)-3-(quinolin-3-yl)-2-(3,5-dimethoxyphenyl)acrylonitrile]	455 nM

same assay, conditions: Homo sapiens, HCT-15, read-out: LC50

Structure (SMILES)	CC50
COc1cc(OC)cc(/C(C#N)=C/c2cnc3ccccc3c2)c1 [PNR-4-85, (Z)-3-(quinolin-3-yl)-2-(3,5-dimethoxyphenyl)acrylonitrile]	> 100 µM

system: CAKI-1; assay: NCI growth inhibition and cytotoxicity screen, Renal Cancer panel; conditions: Homo sapiens, CAKI-1

Structure (SMILES)	GI50
COc1cc(OC)cc(/C(C#N)=C/c2cnc3ccccc3c2)c1 [PNR-4-85, (Z)-3-(quinolin-3-yl)-2-(3,5-dimethoxyphenyl)acrylonitrile]	223 nM

same assay, conditions: Homo sapiens, CAKI-1, read-out: LC50

Structure (SMILES)	CC50
COc1cc(OC)cc(/C(C#N)=C/c2cnc3ccccc3c2)c1 [PNR-4-85, (Z)-3-(quinolin-3-yl)-2-(3,5-dimethoxyphenyl)acrylonitrile]	> 100 µM

system: RXF 393; assay: as above; conditions: Homo sapiens, RXF 393

Structure (SMILES)	GI50
COc1cc(OC)cc(/C(C#N)=C/c2cnc3ccccc3c2)c1 [PNR-4-85, (Z)-3-(quinolin-3-yl)-2-(3,5-dimethoxyphenyl)acrylonitrile]	297 nM

same assay, conditions: Homo sapiens, RXF 393, read-out: LC50

Structure (SMILES)	CC50
COc1cc(OC)cc(/C(C#N)=C/c2cnc3ccccc3c2)c1 [PNR-4-85, (Z)-3-(quinolin-3-yl)-2-(3,5-dimethoxyphenyl)acrylonitrile]	> 100 µM

system: KM12; assay: NCI growth inhibition and cytotoxicity screen, Colon Cancer panel; conditions: Homo sapiens, KM12

Structure (SMILES)	GI50
COc1cc(OC)cc(/C(C#N)=C/c2cnc3ccccc3c2)c1 [PNR-4-85, (Z)-3-(quinolin-3-yl)-2-(3,5-dimethoxyphenyl)acrylonitrile]	409 nM

same assay, conditions: Homo sapiens, KM12, read-out: LC50

Structure (SMILES)	CC50
COc1cc(OC)cc(/C(C#N)=C/c2cnc3ccccc3c2)c1 [PNR-4-85, (Z)-3-(quinolin-3-yl)-2-(3,5-dimethoxyphenyl)acrylonitrile]	> 100 µM

system: HS 578T; assay: NCI growth inhibition and cytotoxicity screen, Breast Cancer panel; conditions: Homo sapiens

Structure (SMILES)	GI50
COc1cc(OC)cc(/C(C#N)=C/c2cnc3ccccc3c2)c1 [PNR-4-85, (Z)-3-(quinolin-3-yl)-2-(3,5-dimethoxyphenyl)acrylonitrile]	715 nM

same assay, conditions: Homo sapiens, read-out: LC50

Structure (SMILES)	CC50
COc1cc(OC)cc(/C(C#N)=C/c2cnc3ccccc3c2)c1 [PNR-4-85, (Z)-3-(quinolin-3-yl)-2-(3,5-dimethoxyphenyl)acrylonitrile]	> 100 µM

system: MOLT-4; assay: NCI growth inhibition and cytotoxicity screen, Leukemia panel; conditions: Homo sapiens, MOLT-4

Structure (SMILES)	GI50
COc1cc(OC)cc(/C(C#N)=C/c2cnc3ccccc3c2)c1 [PNR-4-85, (Z)-3-(quinolin-3-yl)-2-(3,5-dimethoxyphenyl)acrylonitrile]	378 nM

same assay, conditions: Homo sapiens, MOLT-4, read-out: LC50

Structure (SMILES)	CC50
COc1cc(OC)cc(/C(C#N)=C/c2cnc3ccccc3c2)c1 [PNR-4-85, (Z)-3-(quinolin-3-yl)-2-(3,5-dimethoxyphenyl)acrylonitrile]	> 100 µM
